Paper PMC12579162, “Synthesized Depside Molecules Suppress the Progression of Colorectal Cancer by Binding VDAC1/PHB/MMP9 Being at the Crossroads of Stemness, Motility, Apoptosis, and Metabolism” (MedComm, 2025)
Where two headings read alike, the source gives them in different places.

Columns and labels:
CaCo2 cells = test: MTT cell viability, CaCo2; assay type: cell-based; settings: Homo sapiens, Caco-2; 48 h, MTT assay
Description: (§1) Cells (3 × 10^3 cells/well) were seeded on a 96‐well plate, grown overnight, and then treated with compounds at indicated concentrations for 48 h. After incubation with MTT for 4 h at 37°C, cells were lysed with 150 µL of DMSO (Sigma–Aldrich, St. Louis, USA). Absorbance was measured at 570 nm on a microplate reader with the Gen5 software (v.2.03.1; BioTek, Winooski, VT, USA).

DLD1 cells = test: MTT cell viability, DLD1; assay type: cell-based; settings: Homo sapiens, DLD-1; 48 h, MTT assay
Description: as §1

HT29 cells = test: MTT cell viability, HT29; assay type: cell-based; settings: Homo sapiens, HT-29; 48 h, MTT assay
Description: as §1

CT26 cells = test: MTT cell viability, CT26; assay type: cell-based; settings: Mus musculus, 48 h, MTT assay
Description: as §1

SW620 cells = test: MTT cell viability, SW620; assay type: cell-based; settings: Homo sapiens, SW-620; 48 h, MTT assay
Description: as §1

HaCaT cells = test: MTT cell viability, HaCaT; assay type: cell-based; settings: Homo sapiens, 48 h, MTT assay
Description: as §1

NIH3T3 cells = test: MTT cell viability, NIH3T3; assay type: cell-based; settings: Mus musculus, 48 h, MTT assay
Description: as §1

[1] = Tissue distribution in CT26 tumor-bearing mice (LC–MS/MS); assay type: in vivo; settings: Balb/c mice, 10 mg/kg; for distribution in tumor and intestines: 24 h, compared with TU and DA; for concentration at 24 h: mouse
Description: Concentrations of TU, DA, SB4, and SB5 in tissues (liver, intestine, and tumor) and plasma were measured using LC–MS/MS. Samples were prepared by 40 µL of plasma or the supernatant separated from the tissue pellet and added 120 µL of acetonitrile (ACN) containing internal standard (IS). The samples were vortexed, sonicated for 30 min, and then left on ice for 15 min. Subsequently, the samples were centrifuged at 3000×g for 20 min, and the supernatant was analyzed. Calibration curves were prepared by matrix matched with tissue supernatants‐treated DMSO. The standard concentrations were set at 0, 62.5, 250, and 1000 nM for each compound. The LC–MS/MS system comprised a 40D‐XS UHPLC system (Shimadzu), and API 4000 mass spectrometer equipped with a Turbo V IonSpray source (Applied Biosystems). The sample separation was performed on a Waters Atlantis dC18 column (2.1 × 100 mm, 3 µm) using a mobile phase consisting of 0.1% formic acid in water (mobile phase A) and 0.1% formic acid in ACN (mobile phase B). A linear gradient of the two solvents was used (0 min, 0% B; 4 min, 50% B; 7 min, 95% B; 8 min, 0% B), and the equilibration time was 2 min. The flow rate was set at 0.4 mL/min, the column temperature was maintained at 30°C, and the injection volume was 10 µL.
MS/MS analysis was conducted in multiple reaction monitoring (MRM). In positive ion mode transitions were set for DA (m/z 375 → 193), SB4 (m/z 447 → 193), SB5 (m/z 461 → 193), and the IS carbamazepine (100 nM, m/z 237 → 197). In negative ion mode, MRM transitions were monitored for TU (m/z 339 → 217) and the IS 4‐methylumbelliferone (300 nM, m/z 175 → 133). The Turbo V Ion Spray interface was operated in 5500 V (pos) or −4500 V (neg), with a source temperature of 600°C. Nebulizing gas flow, auxiliary gas flow, and curtain gas flow were set at 50, 40, and 30 L/min, respectively, while the collision gas pressure was maintained at 3.4 × 10^−⁵ Torr. Data were analyzed by analyst 1.6.2 (AB Sciex, Framingham, USA).

[2] = system: CRC cells (CaCo2, DLD1, HCT116, HT29, and SW620); test: Spheroid formation assay, CRC cell lines; assay type: cell-based, human; settings: 2.5 and 5 µM, 10–14 days
Description: Monolayer cells were separated into single‐cell suspensions at around 70% confluence using a solution of trypsin. After that, the cells were added to N2‐supplemented DMEM/F12 that contained human basal fibroblast growth factor and human recombinant epidermal growth factor. Cells seeded at a density of 5 × 10^3 cells/well in ultra‐low attachment 24‐well plates (Corning Inc., Corning, NY, USA). After 10–14 days of culture, spheres were quantitated by inverted phase contrast microscopy. The relative sphere formation ability was calculated through the IMT iSolution software (IMT iSolution Inc., Northampton, NJ, USA) measuring the pixel intensity of the sphere area randomly in each plate.

CRC cells = test: Transwell invasion assay; assay type: cell-based, human; settings: 5 µM, 24 h, versus vehicle-treated control
caspase 3/7 in CRC cells = test: Caspase-Glo 3/7 activity; assay type: cell-based, human; settings: 10 µM, 48 h, relative to DMSO
Description: Caspase 3/7 activity was determined with a Caspase-Glo 3/7 assay kit (Promega). CRC cells were seeded in 96 well plates, 10000 per well cells, with media containing 2% FBS. Treatments were applied after overnight incubation, incubated for 48 hours. After treatment, Caspase-Glo reagent was added to each well and incubated in the dark for 1 hour. […] was recorded with the GloMax® Microplate Reader.

[3] = system: CaCo2, DLD1, HT29, HCT116, and SW620 cells; test: Cell cycle analysis by flow cytometry; assay type: cell-based, human; settings: 10 µM, 48 h
Description: (§2) Cells were cultured in a six‐well plate at the density of 2 × 10^5 cells/well until adherence. Cells were treated with DMSO or compound for 48 h. Apoptosis or cell cycle experiments were then performed. For apoptosis analysis, cells were harvested and washed with PBS, resuspended in 100 µL of 1× binding buffer followed by staining with 4 µL of Annexin V–FITC (BD, Biosciences, San Jose, CA, USA), and 8 µL of 50 µg/mL propidium iodide (PI; BD Biosciences, San Jose, CA, USA) for 30 min in the dark. For cell cycle analysis, cells were washed with FACS washing buffer, incubated with trypsin solution, followed by RNase A for 10 min at room temperature. Cells were centrifuged and pellets were collected and stained with 100 µL of 4 mg/mL PI (Sigma–Aldrich) for 2 h in the dark at 4°C. Cells were detected by flow cytometry on a CytoFLEX instrument (Beckman Coulter Life Sciences, Indianapolis, IN, USA).

CRC cell lines = test: Apoptosis / cell death analysis; assay type: cell-based, human
Description: as §2

[4] = liver, read-out: concentration in liver
[5] = plasma, read-out: quantity in plasma

Row | IC50 (CaCo2 cells) [µM] | IC50 (DLD1 cells) [µM] | IC50 (HT29 cells) [µM] | IC50 (CT26 cells) [µM] | IC50 (SW620 cells) [µM] | concentration at 24 h [1, 4] [nM] | concentration at 24 h [1, 5] [nM] | SMILES | IC50 (HaCaT cells) [µM] | IC50 (NIH3T3 cells) [µM] | distribution in tumor and intestines [1] | spheroid formation [2] | number of invaded cells (CRC cells) | caspase 3/7 activity (caspase 3/7 in CRC cells) | cell-cycle distribution [3] | concentration with cell death ability (CRC cell lines) [µM]
1 | 8.74 | 4.08 | 3.95 | 5.33 | 5.33 | 1 to 2 | < 2 | COCCOc1c(C)c(OC(=O)c2c(C)cc(OC)c(C)c2OC)cc(C)c1C(=O)OC [SB4, 4-(Methoxycarbonyl)-3-(2-methoxyethoxy)-2,5-dimethylphenyl 2,4-dimethoxy-3,6-dimethylbenzoate] | 26.7 | 121 | bioavailability is improved compared with TU and DA | suppressed spheroid formation | significantly reduced the number of invaded cells | induced | induced Sub G1 and G2/M populations while G1 population decreased | ~10
2 | 2.77 | 57.8 | 7.47 | 2.27 | 2.27 | 1 to 2 | < 2 | COCCCOc1c(C)c(OC(=O)c2c(C)cc(OC)c(C)c2OC)cc(C)c1C(=O)OC [SB5, 4-(Methoxycarbonyl)-3-(3-methoxypropoxy)-2,5-dimethylphenyl 2,4-dimethoxy-3,6-dimethylbenzoate] | 70.7 | 112 | bioavailability is improved compared with TU and DA | suppressed spheroid formation | significantly reduced the number of invaded cells | induced | induced Sub G1 and G2/M populations while G1 population decreased | ~10
